How the values were obtained:
Format in all cases: cell-based
[1] = system: Saccharomyces cerevisiae wild type strain BY4743; assay: AF1 combined gene expression and metabolite mapping to KEGG reactions and pathways
Description: In AF1, two different technologies were utilized: gene expression analysis (for examination of mRNA expression) and metabolite analysis. […] As noted previously, existing metabolic databases may be helpful in practicing the methods and systems of the present invention, but many databases include limitations that make their use in data analysis and pathway mapping less than straightforward. […] This caveat to KEGG makes it difficult to pinpoint the correct pathway when attempting to link a gene to a specific pathway. […] The pathway score indicates how meaningful the mapping is, or how likely it is to be correctly indicative of the pathway involved in the perturbation under examination. The method provides a pathway score based on perturbation levels of genes and/or compounds and the information content of each gene and/or compound in the pathway, i.e., a pathway score indicates the extent to which other pathways are mapped to a gene/compound. […] Degree of perturbation can be calculated, for example, based on a number of standard deviations from a norm, and included in an equation such as the one shown above, so that not only the number of pathways is taken into account, but also accounts for the amount of gene transcript or compound present as compared to a control. […] Of the 676 compounds under consideration, 77 were detected in the AF1 samples. […]

[2] = system: Saccharomyces cerevisiae wild type strain BY4743; assay: AF1 yeast gene expression analysis (microarray); conditions: p < 0.05, KEGG mapping
Description: Saccharomyces cerevisiae wild type strain BY4743 was purchased from American Type Culture Center (ATCC, Manassas, Va.). The yeast strain was grown in YPD or SD media. […] The cultures started from fresh single colonies were grown in 1.0 ml YPD overnight at 30° C. […] The OD600 was adjusted to 1.0 with YPD media, then 2.0 ml of each was inoculated into three 250 ml flasks, each containing 50 ml of SD media. […] The cells were kept growing for another two hours, then collected by centrifugation at 4000 rpm for 5 minutes at 4° C. Pellets were washed once with ice-cold water, then were lyophilized overnight at 4° C. […] RNA quality was determined using the Bioanalyzer 2100 and the RNA 6000 assay (Agilent Technologies, Palo Alto, Calif.) according to manufacturer's instructions. RNA concentrations were determined spectrophotometrically by measuring the absorption at 260 nm in an Ultrospec 2000 (Pharmacia Biotech, Piscataway, N.J.). […] Labeled cRNAs were evaluated using the RNA 6000 assay on the Agilent Bioanalyzer 2100. Labeled cRNA concentrations were determined spectrophotometrically by measuring the absorption at 260 nm in an Ultrospec 2000 (Pharmacia Biotech, Piscataway, N.J.). […] Each feature was determined from an array's associated pattern file and a detection algorithm. […] Data was evaluated after combining results from fluor reversal replicate hybridizations. […]

[3] = system: Saccharomyces cerevisiae wild type strain BY4743; assay: AF1 yeast metabolite analysis by GC-MS and LC-MS; conditions: for # Compounds perturbed: 2×MIC, two hours

C[C@@H]1[C@H](O)[C@@H](C)/C=C/C=C/C=C/C=C/C=C/C=C/C=C/[C@H](O[C@@H]2O[C@H](C)[C@@H](O)[C@H](N)[C@@H]2O)C[C@@H]2O[C@](O)(C[C@@H](O)C[C@@H](O)[C@H](O)CC[C@@H](O)C[C@@H](O)CC(=O)O[C@H]1C)C[C@H](O)[C@H]2C(=O)O [Amphoteracin B]
Number of Reactions Having an Enzyme and at Least One Compound Perturbed [1]: 54
# Pathways Affected by at Least One Gene [2]: 97
# Compounds perturbed ([3]; P < 0.05): 16
# Compounds perturbed ([3]; P < 0.1): 21
Fold Change of campesterol ([3]; platform GC): 0
Fold Change of desmosterol ([3]; platform GC): 0
Fold Change of octadecanoic acid ([3]; platform GC): 0.21
Fold Change of abscisic acid ([3]; platform LC): 0
Fold Change of adenosine ([3]; platform LC): 0
Fold Change of riboflavin ([3]; platform LC): 0
Fold Change of 4-methylcatechol ([3]; platform nLC): 0
Fold Change of 5hydroxyLtryptophan ([3]; platform nLC): 0
Fold Change of 6-benzylaminopurine ([3]; platform nLC): 0
Fold Change of NacetylDglucosamine ([3]; platform nLC): 0
Fold Change of NacetylLornithine ([3]; platform nLC): 0
Fold Change of abscisic acid ([3]; platform nLC): 0
Fold Change of adenine ([3]; platform nLC): 0
Fold Change of adenosine ([3]; platform nLC): 0
Fold Change of anthranilic acid ([3]; platform nLC): 0
Fold Change of argininosuccinate ([3]; platform nLC): 0
Fold Change of benzoic acid ([3]; platform nLC): 0
Fold Change of catechol ([3]; platform nLC): 0
Fold Change of cinnamic acid ([3]; platform nLC): 0
Fold Change of citricanoic/itaconi ([3]; platform nLC): 0
Fold Change of coumaric acid ([3]; platform nLC): 0
Fold Change of cytosine ([3]; platform nLC): 0
Fold Change of diaminopimelic acid ([3]; platform nLC): 0
Fold Change of dihydrofolic acid ([3]; platform nLC): 0
Fold Change of estrone ([3]; platform nLC): 0
Fold Change of farnesol ([3]; platform nLC): 0
Fold Change of folic acid ([3]; platform nLC): 0
Fold Change of gibberellic ([3]; platform nLC): 0
Fold Change of glutamine/lysine ([3]; platform nLC): 0.07919
Fold Change of guanine ([3]; platform nLC): 0
Fold Change of histidine ([3]; platform nLC): 0
Fold Change of homogentisic/uric ([3]; platform nLC): 0
Fold Change of hydrocortisone ([3]; platform nLC): 0
Fold Change of indole3pyruvic acid ([3]; platform nLC): 0
Fold Change of jasmonic acid ([3]; platform nLC): 0
Fold Change of kinetin ([3]; platform nLC): 0
Fold Change of luteolin ([3]; platform nLC): 0
Fold Change of malonic acid ([3]; platform nLC): 0
Fold Change of methionine ([3]; platform nLC): 0
Fold Change of phenylpyruvic acid ([3]; platform nLC): 0
Fold Change of phosphoenolpyruvate ([3]; platform nLC): 0
Fold Change of pinitol ([3]; platform nLC): 0
Fold Change of porphobilinogen ([3]; platform nLC): 0
Fold Change of retinoic acid ([3]; platform nLC): 0
Fold Change of salicylic/HObenzoic ([3]; platform nLC): 0
Fold Change of shikimic acid ([3]; platform nLC): 0
Fold Change of sinapinic acid ([3]; platform nLC): 0
Fold Change of thymine ([3]; platform nLC): 0
Fold Change of urocanic acid ([3]; platform nLC): 0
Fold Change of xanthosineDiH2O ([3]; platform nLC): 0
Fold Change of zeatin ([3]; platform nLC): 0
Fold Change of 4-aminobenzoic acid ([3]; platform pLC): 0
Fold Change of 4-methylcatechol ([3]; platform pLC): 0
Fold Change of 5hydroxyLtryptophan ([3]; platform pLC): 0
Fold Change of 6benzylaminopurine ([3]; platform pLC): 0
Fold Change of NacetylDglucosamine ([3]; platform pLC): 0
Fold Change of NacetylLglutamate ([3]; platform pLC): 0
Fold Change of allantoic acid ([3]; platform pLC): 0
Fold Change of anthranilic acid ([3]; platform pLC): 0
Fold Change of argininosuccinate ([3]; platform pLC): 0
Fold Change of biotin ([3]; platform pLC): 0
Fold Change of caffeine ([3]; platform pLC): 0
Fold Change of citric acid TME ([3]; platform pLC): 0
Fold Change of cytidine ([3]; platform pLC): 0
Fold Change of cytosine ([3]; platform pLC): 0
Fold Change of diaminopimelic acid ([3]; platform pLC): 0
Fold Change of dihydrofolic acid ([3]; platform pLC): 0
Fold Change of dipicolinic acid ([3]; platform pLC): 0
Fold Change of folic acid ([3]; platform pLC): 0
Fold Change of glucosamine ([3]; platform pLC): 0
Fold Change of glucosamine6PO4 ([3]; platform pLC): 0
Fold Change of histidine ([3]; platform pLC): 0
Fold Change of hydrocortisone ([3]; platform pLC): 0
Fold Change of itaconic acid dimes ([3]; platform pLC): 0
Fold Change of kinetin ([3]; platform pLC): 0
Fold Change of luteolin ([3]; platform pLC): 0
Fold Change of niacinamide ([3]; platform pLC): 0
Fold Change of nopaline ([3]; platform pLC): 0
Fold Change of phosphoenolpyruvate ([3]; platform pLC): 0
Fold Change of progesterone ([3]; platform pLC): 0
Fold Change of sugar-phosphate ([3]; platform pLC): 0
Fold Change of thiamine ([3]; platform pLC): 0
Fold Change of thymine ([3]; platform pLC): 0
Fold Change of tryptophan ([3]; platform pLC): 0
Fold Change of urocanic acid ([3]; platform pLC): 0
Fold Change of xanthosine(diH2O) ([3]; platform pLC): 0
Fold Change of zeatin ([3]; platform pLC): 0
